Measurements published in patent US11840527B2, “Non-fused thiophene derivatives and their uses” (ENYO PHARMA, priority 2018, dated 2023).

Columns and labels:
[1] = test system: H1N1 (influenza A/New Caledonia/20/99); assay: Antiviral effect on A549 cells infected with H1N1; type: cell-based, H1N1 A/New Caledonia/20/99 virus; details: Influenza A virus, MOI 0.1, 48 h post-infection, MUNANA neuraminidase readout
Experimental: The antiviral effect of the compounds of the invention have been tested on A549 cell lines infected with H1N1 (influenza A/New Caledonia/20/99).
Human A549 cells (80,000 cells/well in a 96 well plate) were treated with a range of concentration of test compounds and immediately infected by H1N1 A/New Caledonia/20/99 virus (clinical isolate) at MOI of 0.1 in DMEM/1% Penicillin/streptomycin supplemented with […] TPCK trypsin (Sigma) and incubated at 37° C. in 5% CO2. 48 h post-infection, supernatants (25 μl) were collected and transferred into a 96-well black flat-bottom plate, mixed with 25 μl PBS with Ca++/Mg++ (Thermo Fisher) and 50 μl of 2′-(4-Methylumbelliferyl)-ax-D-N-acetylneuraminic acid sodium salt hydrate stock-solution (20 μM, MUNANA, Sigma). Plates were incubated 1h at 37° C. and reaction is stopped by adding 100 μl of Stop Solution (glycine 0.1 M pH10.7/25% ethanol). The amount of fluorescent product released by MUNANA hydrolysis (4-MU) was measured in a Tecan spectrophotometer with excitation and emission wavelengths of 365 and 450 nm respectively.

[2] = target: T1, CISD3 Gene Product (Miner2) (Homo sapiens, UniProt P0C7P0); assay: Stability of Fe-S cluster binding of purified NEET protein (absorbance 458 nm); type: biochemical; details: for Residual cluster bound at end of experiment (Percentage Absorbance 458 nm at time zero): CISD3 gene product, at 180 minutes, vehicle control (DMSO) 11%; for Residual cluster bound at end of experiment (Percentage Absorbance 458 nm at time zero) / Time (in minutes) to achieve 50% loss of bound cluster (Absorbance 458 nm): 60 μM compound; for Stabiliser of Fe—S cluster binding (time to 50% loss increased by more than 25% vs control) / Time (in minutes) to achieve 50% loss of bound cluster (Absorbance 458 nm): Miner2; for Stabiliser of Fe—S cluster binding (time to 50% loss increased by more than 25% vs control): at the concentrations tested; for Time (in minutes) to achieve 50% loss of bound cluster (Absorbance 458 nm): pH 6, 37° C., 20 μM protein, run time 180 minutes, vehicle control 60
T1 sequence (P0C7P0 15-127): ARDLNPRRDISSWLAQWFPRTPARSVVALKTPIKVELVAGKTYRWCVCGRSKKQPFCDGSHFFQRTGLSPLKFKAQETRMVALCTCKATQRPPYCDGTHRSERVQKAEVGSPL
Experimental: (§1) The modulator effect on the NEET proteins encoded by human CISD1, CISD2, and CISD3 genes by the compounds of the invention has been tested and is reported below. Particularly, the biochemical function of the NEET proteins is measured by the stability of Fe—S cluster binding of the purified NEET proteins.
(§2) The Fe—S cluster binding capacity of NEET proteins is known to be coordinated by four amino-acids in a stretch of 16 (three Cysteine and one Histidine). As the lability of the Fe—S cluster of NEET proteins is sensitive to the environment, cluster stability measurements are one of the measures of interactions of NEET proteins with small molecules and compounds. NEET protein/2Fe-2S cluster stability can be assessed by monitoring the decay in absorbance of its characteristic 458-nm peak (characteristic of the oxidized 2Fe-2S cluster) over time. Each NEET protein (mitoNEET, NAF-1 and Miner 2) was tested for its Fe—S binding in the absence or presence of a compound according to the invention (see table 3 below). The rate of cluster release (time in minutes to achieve 50% loss of bound Fe—S cluster) was compared for each NEET protein in the presence of one of the compounds of the invention (in a 1:3 protein:compound molar ratio) relative to each protein alone.
(§3) At pH 6, all the three NEET proteins (mitoNEET, NAF-1 and Miner 2) have a characteristic rate of loss of the bound Fe—S cluster that can be measured by the decrease of absorbance at wavelength 458 nm over time, using a spectrophotometer. Thus, Bis-Tris buffer (100 mM Bis-Tris pH6, 100 mM Nacl) was used at pH 6 to dilute either DMSO (Blank sample: Bis-Tris Buffer pH 6, 66 μM DMSO), DMSO and one of the three NEET proteins (Control sample: Bis-Tris Buffer pH 6, 66 μM DMSO, 20 μM purified NEET protein) or DMSO, one of the three NEET proteins and a compound of the invention (Test sample: Bis-Tris Buffer pH 6, 66 μM DMSO, 20 μM purified NEET protein, 60 μM compound of the invention).
(§4) A reaction mix containing DMSO diluted in the Bis-Tris Buffer with or without a compound of the invention was prepared. The purified NEET protein was the last component added to the reaction mix which was then aliquoted into 4 replicates in 96 wells plates. The absorbance at wavelength 458 nm was taken at 5 minutes intervals at 37° C. with a spectrofluorimeter. The assay run time for CISD2 gene product (NAF-1) was 500 minutes and 180 minutes for both the CISD 1 gene product (mitoNEET) and the CISD3 gene product (Miner 2).
(§5) In addition to time monitoring, residual bound Fe—S cluster to NEET protein was measured at the final point of the spectrometry assay for each Test sample and compared to the Control sample data (in parenthesis table 3). This residual binding is measured by the differential percentage between the absorbance 458 nm at time zero and the absorbance 458 nm at the end of the experiment (i.e. respectively 500 or 180 minutes as described hereabove), showing the percentage of NEET protein still able to bind Fe—S cluster.
(§6) Analysis of the absorbance enables the time for which 50% loss of bound Fe—S cluster is reached (i.e. a 50% absorbance decrease at 458 nm) for each Test sample and each Control sample (in parenthesis table 3) to be determined. The data are then compared to determine whether the compound of the invention stabilizes or destabilizes the NEET protein/Fe—S cluster binding.
(§7) Stabilisers of Fe—S cluster binding by the NEET proteins slow the release of bound Fe—S (i.e. increase the time needed to reach 50% Fe—S cluster bound loss by more than 25% for the Test sample compared to the Control sample). As illustrated by table 3, at the concentrations tested, stabilisers of CISD1 Gene Product (mitoNEET) are the compounds #9, #18, #26, #2, #1, and #42. Stabilisers of CISD2 Gene Product (NAF-1) are the compounds #2, #1, and #40. Stabilisers of CISD3 Gene Product (Miner2) are the compounds #9, #18, #26, #2, #1, and #42.

[3] = target: T2, CISD1 Gene Product (mitoNEET) (Homo sapiens, UniProt Q9NZ45); assay: as above; type: biochemical; details: for Residual cluster bound at end of experiment (Percentage Absorbance 458 nm at time zero): at 180 minutes, vehicle control 16%; for Residual cluster bound at end of experiment (Percentage Absorbance 458 nm at time zero) / Time (in minutes) to achieve 50% loss of bound cluster (Absorbance 458 nm): 60 μM compound; for Stabiliser of Fe—S cluster binding (time to 50% loss increased by more than 25% vs control): at the concentrations tested; for Time (in minutes) to achieve 50% loss of bound cluster (Absorbance 458 nm): pH 6, 37° C., 20 μM protein, run time 180 minutes, vehicle control 80
T2 sequence (Q9NZ45 33-108 limits assumed): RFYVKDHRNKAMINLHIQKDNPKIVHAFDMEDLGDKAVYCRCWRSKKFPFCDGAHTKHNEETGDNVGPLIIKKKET
Experimental: as §1, §2, §3, §4, §5, §6, §7

[4] = target: T3, CISD2 Gene Product (NAF-1) (Homo sapiens, UniProt Q8N5K1); assay: as above; type: biochemical; details: for Residual cluster bound at end of experiment (Percentage Absorbance 458 nm at time zero): at 500 minutes, vehicle control 3%; for Residual cluster bound at end of experiment (Percentage Absorbance 458 nm at time zero) / Time (in minutes) to achieve 50% loss of bound cluster (Absorbance 458 nm): 60 μM compound; for Stabiliser of Fe—S cluster binding (time to 50% loss increased by more than 25% vs control): at the concentrations tested; for Time (in minutes) to achieve 50% loss of bound cluster (Absorbance 458 nm): pH 6, 37° C., 20 μM protein, run time 500 minutes, vehicle control 310
T3 sequence (Q8N5K1 57-135 limits assumed): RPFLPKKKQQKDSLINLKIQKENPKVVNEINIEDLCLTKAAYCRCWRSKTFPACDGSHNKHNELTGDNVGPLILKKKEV
Experimental: as §1, §2, §3, §4, §5, §6, §7

[5] = test system: NFκB; assay: NFκB reporter assay, TNFα stimulation of A549 reporter cells; type: cell-based; details: Homo sapiens; A549 NFκB-NanoLuciferase reporter cells, 4 ng/ml TNFα, 6 hours
Text: Compounds of the present invention have been tested for their capacity to inhibit NFκB.
The NFκB reporter construct was made by cloning 5 NFκB responsive elements upstream of a NanoLuciferase reporter gene flanked by AAVS1 genomic sequences.
NFκB Responsive element fused with NanoLuciferase and SV40 late Poly(A) signal was amplified from pNL3.2-NFκB-Nluc (Promega) using NFκB-NLUC-F and NFκB-NLUC-R primers and inserted by Infusion (TaKaRa) in AAVS1 SA-2A-puro-pA donor plasmid (Hockemeyer et al, Nat Biotechnol. 2009, 27, 851-7) digested by Sall. pCRISPR AAVS1-T2 expressing a guide RNA (gRNA) to target human AAVS1 (T2 target sequence) was constructed by inserting AAVS1-T2A hybridized primers in pLentiCRISPR v2-blast (Sanjana et al, Nat Methods. 2014, 11, 783-4) digested by Bsmb1.
A549 cells were transfected by the plasmids and puromycine selected for 5 days (1 μg mL-1). Then clones were obtained by limiting dilution and selected to maximize TNFα dependent NFkB-NanoLuciferase induction.
The reporter cells were seeded on a 96-well plate for overnight with DMEM including 10% FBS. Test compounds were added at varying concentrations. The cells then were treated with 4 ng/ml TNFα (Peprotech, ref E251) in DMEM+10% FBS. NanoGlo luciferase assay (Promega) was carried out 6 hours later. Luminescence was measured using a Spark 20M spectrofluorimeter (Tecan). Values were normalized to the luminescence measured in untreated cells.

| SMILES | IC50 [1] [nM] | Residual cluster bound at end of experiment (Percentage Absorbance 458 nm at time zero) [2] | Stabiliser of Fe—S cluster binding (time to 50% loss increased by more than 25% vs control) [2] | Time (in minutes) to achieve 50% loss of bound cluster (Absorbance 458 nm) [2] | Residual cluster bound at end of experiment (Percentage Absorbance 458 nm at time zero) [3] | Stabiliser of Fe—S cluster binding (time to 50% loss increased by more than 25% vs control) [3] | Time (in minutes) to achieve 50% loss of bound cluster (Absorbance 458 nm) [3] | Residual cluster bound at end of experiment (Percentage Absorbance 458 nm at time zero) [4] | Stabiliser of Fe—S cluster binding (time to 50% loss increased by more than 25% vs control) [4] | Time (in minutes) to achieve 50% loss of bound cluster (Absorbance 458 nm) [4] | EC50 [5] [nM] |
| --- | --- | --- | --- | --- | --- | --- | --- | --- | --- | --- | --- |
| O=C(Nc1scc(-c2ccc(Cl)cc2)c1C(=O)O)c1ccccc1 [Compound #1, 2-Benzamido-4-(4-chlorophenyl)thiophene-3-carboxylic acid] | 298 | 47% (11%) | Stabilisers | 85 (60) minutes | 29% (16%) | stabilisers | 100 (80) minutes | 13% (3%) | Stabilisers | 425 (310) minutes | – |
| O=C(Nc1scc(C2CC3CCC2C3)c1C(=O)O)c1ccccc1 (stereo not drawn) [Compound #9, 2-Benzamido-4-norbornan-2-yl-thiophene-3-carboxylic acid] | 210 | 57% (11%) | Stabilisers | during 180 minutes | 20% (16%) | stabilisers | 100 (80) minutes | 17% (3%) | – | 370 (310) minutes | 1100 |
| O=C(Nc1scc(C2CCCCC2)c1C(=O)O)c1ccccc1 [Compound #26, 2-Benzamido-4-cyclohexyl-thiophene-3-carboxylic acid] | 745 | 52% (11%) | Stabilisers | during 180 minutes | 36% (16%) | stabilisers | 105 (80) minutes | 18% (3%) | – | 355 (310) minutes | – |
| Cc1c(-c2ccccc2)sc(NC(=O)c2ccccc2)c1C(=O)O [Compound #40, 2-Benzamido-4-methyl-5-phenyl-thiophene-3-carboxylic acid] | 2470 | 24% (11%) | – | 70 (60) minutes | 6% (16%) | – | 95 (80) minutes | 9% (3%) | Stabilisers | 390 (310) minutes | – |
| Cc1ccccc1C(=O)Nc1scc(-c2ccccc2)c1C(=O)O [Compound #42, 2-[(2-Methylbenzoyl)amino]-4-phenyl-thiophene-3-carboxylic acid] | 5870 | 37% (11%) | Stabilisers | 75 (60) minutes | 24% (16%) | stabilisers | 100 (80) minutes | 2% (3%) | – | 330 (310) minutes | – |
| CC1(c2csc(NC(=O)c3ccc(NCC4CCOCC4)cc3)c2C(=O)O)CC1 [Compound #111, 4-(1-Methylcyclopropyl)-2-[[4-(tetrahydropyran-4-ylmethylamino)benzoyl]amino]thiophene-3-carboxylic acid] | 200 | – | – | – | – | – | – | – | – | – | 2200 |
